tested on: rabbit skeletal myofibrils (approximately 90% fast fibers); assay: Activation of fast skeletal myofibrils (PUMA coupled-enzyme ATPase assay at pCa25); type: biochemical; settings: concentration at which the compound increased the enzymatic activity by 40%; calcium at pCa25; PM12 buffer pH 6.8
Summary of the method: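 In pH 6.8 PM12 buffer (12 mM Pipes, 2 mM MgCl2, 1 mM DTT), ADP from myosin regenerated via pyruvate kinase/lactate dehydrogenase, with absorbance change at 340 nm from NADH oxidation as read-out. Calcium set at pCa25; Triton-washed rabbit skeletal myofibrils (about 90% fast fibres) used.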

Compound | Mean AC1.4
COc1nc(NC[C@]2(c3ncccc3F)C[C@@H](F)C2)ncc1-c1ccccc1 [{[3-fluoro-1-(3-fluoro(2-pyridyl))cyclobutyl]methyl)(4-methoxy-5-phenylpyrimidin-2-yl)amine] | B (B=1-10 uM)
COc1ncc(-c2cnc(NC[C@]3(c4ncccc4F)C[C@H](F)C3)nc2)cn1 [{[3-fluoro-1-(3-fluoro(2-pyridyl))cyclobutyl]methyl} [5-(2-methoxypyrimidin-5-yl)pyrimidin-2-yl]amine] | D (D=>20 uM)
COc1ccc(-c2cnc(NC[C@]3(c4ncccc4F)C[C@H](F)C3)nc2)cn1 [{[3-fluoro-1-(3-fluoro(2-pyridyl))cyclobutyl]methyl} [5-(6-methoxy(3-pyridyl))pyrimidin-2-yl]amine] | D (D=>20 uM)
COc1nc(NC[C@]2(c3ncccc3F)C[C@H](F)C2)ncc1-c1ccccc1 [{[3-fluoro-1-(3-fluoro(2-pyridyl))cyclobutyl]methyl}(4-methoxy-5-phenylpyrimidin-2-yl)amine] | B (B=1-10 uM)
N-(2-aminoethyl)[2-({[(3-fluoro(2- pyridyl))cyclobutyl]methyl}amino) pyrimidin-5-yl]carboxamide | D (D=>20 uM)
[5-(2-{[1-(3-chloro(2-pyridyl))- isopropyl}amino}pyrimidin-5-yl)(1H- indazol-3-yl)]methylsulfonyl)amine | A (A=<1 uM)
ethyl 1-[(2-{[2-(4-fluorophenyl)-2- methylpropyl]amino}pyrimidin-5- yl)carbonylamino] cyclopropanecarboxylate | D (D=>20 uM)

The remaining lines, values ahead:

Mean AC1.4 | Compound
D (D=>20 uM) | COc1nc(N(C)C[C@]2(c3ncccc3F)C[C@H](F)C2)ncc1-c1ccccc1 [{[3-fluoro-1-(3-fluoro(2-pyridyl))cyclobutyl]methyl}(4-methoxy-5-phenylpyrimidin-2-yl)methylamine]
D (D=>20 uM) | COc1ccnc(NC[C@]2(c3ncccc3F)C[C@H](F)C2)n1 [{[3-fluoro-1-(3-fluoro(2-pyridyl))cyclobutyl]methyl}(4-methoxypyrimidin-2-yl)amine]
D (D=>20 uM) | CNc1nc(NC[C@]2(c3ncccc3F)C[C@H](F)C2)ncc1-c1ccccc1 [{[3-fluoro-1-(3-fluoro(2-pyridyl))cyclobutyl]methyl}[4-(methylamino)-5-phenylpyrimidin-2-yl]amine]
A (A=<1 uM) | Fc1ccccc1-c1cnc(NC[C@]2(c3ncccc3F)C[C@H](F)C2)nc1 [{[3-fluoro-1-(3-fluoro(2-pyridyl))cyclobutyl]methyl}[5-(2-fluorophenyl)pyrimidin-2-yl]amine]
C (C=10-20 uM) | COc1ccc(C)nc1-c1cnc(NC[C@]2(c3ncccc3F)C[C@H](F)C2)nc1 [{[3-fluoro-1-(3-fluoro(2-pyridyl))cyclobutyl]methyl}[5-(3-methoxy-6-methyl(2-pyridyl))pyrimidin-2-yl]amine]
D (D=>20 uM) | COc1ccc(-c2cnc(NC[C@]3(c4ncccc4F)C[C@H](F)C3)nc2)nn1 [{[3-fluoro-1-(3-fluoro(2-pyridyl))cyclobutyl]methyl}[5-(6-methoxypyridazin-3-yl)]pyrimidin-2-yl]amine]
D (D=>20 uM) | Fc1cccnc1[C@]1(CNc2ncccn2)C[C@@H](F)C1 [{[3-fluoro-1-(3-fluoro(2-pyridyl))cyclobutyl]methyl}pyrimidin-2-ylamine]
D (D=>20 uM) | Clc1cccnc1C1(CNc2ncccn2)CCC1 [{[(3-chloro(2-pyridyl))cyclobutyl]methyl}pyrimidin-2-ylamine]
C (C=10-20 uM) | Fc1cccnc1C1(CNc2ncc(-c3ncc[nH]3)cn2)CCC1 [{[(3-fluoro(2-pyridyl))cyclobutyl]methyl}(5-imidazol-2-ylpyrimidin-2-yl)amine]

Source: patent US11369565B2, “Amino-pyrimidine skeletal muscle modulators” (Cytokinetics, Inc., priority 2010, dated 2022)
